Test results: US20160009693A1, “HERBICIDAL COMPOUNDS” (SYNGENTA LIMITED, priority 2013, published 2016)

Each molecule was assayed on Setaria faberi (SETFA) (assay: Herbicidal glasshouse test, post-emergence, SETFA). Conditions: applied at 1000 g/h, evaluated after 13 days.
Assay type: in vivo
Summary of the method: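 This post-emergence glasshouse herbicide test used potted Setaria faberi. Plants were cultivated for 8 days under controlled conditions (24/16° C. day/night, 14 hours light, 65% humidity) and then treated with an aqueous spray made from an acetone/water (50:50) solution containing 0.5% Tween 20. After 13 days of further growth with twice-daily watering, damage was rated on a five point scale (5=80-100%; 1=0-19%).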

Row | Structure (SMILES) | POST Application SETFA, percentage damage (five point scale)
1 | Cc1cccc(-n2c(=O)c(C(=O)Nc3nnnn3C)nn(C)c2=O)c1 [Compound 1.053] | 3 (3=40-59%)
2 | Cn1nnnc1NC(=O)c1nn(C)c(=O)n(Cc2cccc(C#N)c2)c1=O [Compound 1.054] | 4 (4=60-79%)
3 | Cn1nnnc1NC(=O)c1nn(C)c(=O)n(Cc2ccc(F)cc2F)c1=O [Compound 1.055] | 1 (1=0-19%)
4 | Cn1nnnc1NC(=O)c1nn(C)c(=O)n(Cc2c(F)cc(F)cc2F)c1=O [Compound 1.056] | 4 (4=60-79%)
5 | Cn1nnnc1NC(=O)c1nn(C)c(=O)n(Cc2ccc(C(F)(F)F)cc2)c1=O [Compound 1.057] | 1 (1=0-19%)

These molecules were tested on Alopecurus myosuroides (ALOMY) (assay: Herbicidal glasshouse test, post-emergence, ALOMY). Conditions: applied at 1000 g/h, evaluated after 13 days.
Assay type: in vivo

Row | Structure (SMILES) | POST Application ALOMY, percentage damage (five point scale)
6 | Cc1cccc(-n2c(=O)c(C(=O)Nc3nnnn3C)nn(C)c2=O)c1 [Compound 1.053] | 5 (5=80-100%)
7 | Cn1nnnc1NC(=O)c1nn(C)c(=O)n(Cc2cccc(C#N)c2)c1=O [Compound 1.054] | 5 (5=80-100%)
8 | Cn1nnnc1NC(=O)c1nn(C)c(=O)n(Cc2ccc(F)cc2F)c1=O [Compound 1.055] | 5 (5=80-100%)
9 | Cn1nnnc1NC(=O)c1nn(C)c(=O)n(Cc2c(F)cc(F)cc2F)c1=O [Compound 1.056] | 5 (5=80-100%)
10 | Cn1nnnc1NC(=O)c1nn(C)c(=O)n(Cc2ccc(C(F)(F)F)cc2)c1=O [Compound 1.057] | 5 (5=80-100%)

Each molecule was assayed on Amaranthus retoflexus (AMARE) (assay: Herbicidal glasshouse test, post-emergence, AMARE). Conditions: applied at 1000 g/h, evaluated after 13 days.
Assay type: in vivo
Summary of the method: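 This post-emergence glasshouse test used AMARE plants raised in standard soil for 8 days under controlled conditions (24/16° C. day/night, 14 hours light, 65% humidity). Foliage was sprayed with formulated compound in acetone/water (50:50) containing 0.5% Tween 20. Plants were then watered twice daily, and after 13 days percentage damage was rated on a five point scale.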

Row | Structure (SMILES) | POST Application AMARE, percentage damage (five point scale)
11 | Cc1cccc(-n2c(=O)c(C(=O)Nc3nnnn3C)nn(C)c2=O)c1 [Compound 1.053] | 5 (5=80-100%)
12 | Cn1nnnc1NC(=O)c1nn(C)c(=O)n(Cc2cccc(C#N)c2)c1=O [Compound 1.054] | 5 (5=80-100%)
13 | Cn1nnnc1NC(=O)c1nn(C)c(=O)n(Cc2ccc(F)cc2F)c1=O [Compound 1.055] | 5 (5=80-100%)
14 | Cn1nnnc1NC(=O)c1nn(C)c(=O)n(Cc2c(F)cc(F)cc2F)c1=O [Compound 1.056] | 5 (5=80-100%)
15 | Cn1nnnc1NC(=O)c1nn(C)c(=O)n(Cc2ccc(C(F)(F)F)cc2)c1=O [Compound 1.057] | 5 (5=80-100%)

These molecules were tested on Echinochloa crus-galli (ECHCG) (assay: Herbicidal glasshouse test, pre-emergence, ECHCG). Conditions: applied at 1000 g/h, evaluated after 13 days.
Assay type: in vivo
Summary of the method: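 In this pre-emergence glasshouse test, ECHCG seeds sown in pots of standard soil were sprayed one day after sowing with the test material in acetone/water (50:50) containing 0.5% Tween 20. Plants were kept at 24/16° C., 14 hours light, 65% humidity, and watered twice daily. Percentage damage was rated after 13 days on a 1–5 scale.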

Row | Structure (SMILES) | PRE Application ECHCG, percentage damage (five point scale)
16 | Cc1cccc(-n2c(=O)c(C(=O)Nc3nnnn3C)nn(C)c2=O)c1 [Compound 1.053] | 5 (5=80-100%)
17 | Cn1nnnc1NC(=O)c1nn(C)c(=O)n(Cc2cccc(C#N)c2)c1=O [Compound 1.054] | 5 (5=80-100%)
18 | Cn1nnnc1NC(=O)c1nn(C)c(=O)n(Cc2ccc(F)cc2F)c1=O [Compound 1.055] | 5 (5=80-100%)
19 | Cn1nnnc1NC(=O)c1nn(C)c(=O)n(Cc2c(F)cc(F)cc2F)c1=O [Compound 1.056] | 5 (5=80-100%)
20 | Cn1nnnc1NC(=O)c1nn(C)c(=O)n(Cc2ccc(C(F)(F)F)cc2)c1=O [Compound 1.057] | 5 (5=80-100%)

Each molecule was assayed on Echinochloa crus-galli (ECHCG) (assay: Herbicidal glasshouse test, post-emergence, ECHCG). Conditions: applied at 1000 g/h, evaluated after 13 days.
Assay type: in vivo
Summary of the method: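 In this post-emergence glasshouse test, barnyard grass (ECHCG) was cultivated for 8 days under controlled conditions (24/16° C. day/night, 14 hours light, 65% humidity). It was then sprayed with an aqueous solution of the technical compound in acetone / water (50:50) with 0.5% Tween 20. Plants were kept under the same conditions and watered twice daily. After 13 days, percentage damage was rated on a five point scale (5=80-100%; 1=0-19%).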

Row | Structure (SMILES) | POST Application ECHCG, percentage damage (five point scale)
21 | Cc1cccc(-n2c(=O)c(C(=O)Nc3nnnn3C)nn(C)c2=O)c1 [Compound 1.053] | 4 (4=60-79%)
22 | Cn1nnnc1NC(=O)c1nn(C)c(=O)n(Cc2cccc(C#N)c2)c1=O [Compound 1.054] | 5 (5=80-100%)
23 | Cn1nnnc1NC(=O)c1nn(C)c(=O)n(Cc2ccc(F)cc2F)c1=O [Compound 1.055] | 4 (4=60-79%)
24 | Cn1nnnc1NC(=O)c1nn(C)c(=O)n(Cc2c(F)cc(F)cc2F)c1=O [Compound 1.056] | 4 (4=60-79%)
25 | Cn1nnnc1NC(=O)c1nn(C)c(=O)n(Cc2ccc(C(F)(F)F)cc2)c1=O [Compound 1.057] | 4 (4=60-79%)

These molecules were tested on Solanum nigrum (SOLNI) (assay: Herbicidal glasshouse test, pre-emergence, SOLNI). Conditions: applied at 1000 g/h, evaluated after 13 days.
Assay type: in vivo
Summary of the method: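 This pre-emergence glasshouse herbicide test used Solanum nigrum sown in standard soil. One day after sowing, pots were sprayed with the compound in acetone/water (50:50) with 0.5% Tween 20. They were then grown at 24/16° C., with 14 hours light and 65% humidity, and watered twice daily. Percentage damage was scored after 13 days on a five point scale, where 5=80-100% and 1=0-19%.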

Row | Structure (SMILES) | PRE Application SOLNI, percentage damage (five point scale)
26 | Cc1cccc(-n2c(=O)c(C(=O)Nc3nnnn3C)nn(C)c2=O)c1 [Compound 1.053] | 5 (5=80-100%)
27 | Cn1nnnc1NC(=O)c1nn(C)c(=O)n(Cc2cccc(C#N)c2)c1=O [Compound 1.054] | 5 (5=80-100%)
28 | Cn1nnnc1NC(=O)c1nn(C)c(=O)n(Cc2ccc(F)cc2F)c1=O [Compound 1.055] | 5 (5=80-100%)
29 | Cn1nnnc1NC(=O)c1nn(C)c(=O)n(Cc2c(F)cc(F)cc2F)c1=O [Compound 1.056] | 5 (5=80-100%)
30 | Cn1nnnc1NC(=O)c1nn(C)c(=O)n(Cc2ccc(C(F)(F)F)cc2)c1=O [Compound 1.057] | 3 (3=40-59%)

Each molecule was assayed on Ipomoea hederacea (IPOHE) (assay: Herbicidal glasshouse test, post-emergence, IPOHE). Conditions: applied at 1000 g/h, evaluated after 13 days.
Assay type: in vivo

Row | Structure (SMILES) | POST Application IPOHE, percentage damage (five point scale)
31 | Cc1cccc(-n2c(=O)c(C(=O)Nc3nnnn3C)nn(C)c2=O)c1 [Compound 1.053] | 5 (5=80-100%)
32 | Cn1nnnc1NC(=O)c1nn(C)c(=O)n(Cc2cccc(C#N)c2)c1=O [Compound 1.054] | 5 (5=80-100%)
33 | Cn1nnnc1NC(=O)c1nn(C)c(=O)n(Cc2ccc(F)cc2F)c1=O [Compound 1.055] | 5 (5=80-100%)
34 | Cn1nnnc1NC(=O)c1nn(C)c(=O)n(Cc2c(F)cc(F)cc2F)c1=O [Compound 1.056] | 5 (5=80-100%)
35 | Cn1nnnc1NC(=O)c1nn(C)c(=O)n(Cc2ccc(C(F)(F)F)cc2)c1=O [Compound 1.057] | 5 (5=80-100%)

The molecules below were run on Alopecurus myosuroides (ALOMY) (assay: Herbicidal glasshouse test, pre-emergence, ALOMY). Conditions: applied at 1000 g/h, evaluated after 13 days.
Assay type: in vivo

Row | Structure (SMILES) | PRE Application ALOMY, percentage damage (five point scale)
36 | Cc1cccc(-n2c(=O)c(C(=O)Nc3nnnn3C)nn(C)c2=O)c1 [Compound 1.053] | 5 (5=80-100%)
37 | Cn1nnnc1NC(=O)c1nn(C)c(=O)n(Cc2cccc(C#N)c2)c1=O [Compound 1.054] | 5 (5=80-100%)
38 | Cn1nnnc1NC(=O)c1nn(C)c(=O)n(Cc2ccc(F)cc2F)c1=O [Compound 1.055] | 5 (5=80-100%)
39 | Cn1nnnc1NC(=O)c1nn(C)c(=O)n(Cc2c(F)cc(F)cc2F)c1=O [Compound 1.056] | 5 (5=80-100%)
40 | Cn1nnnc1NC(=O)c1nn(C)c(=O)n(Cc2ccc(C(F)(F)F)cc2)c1=O [Compound 1.057] | 5 (5=80-100%)

Each molecule was assayed on Ipomoea hederacea (IPOHE) (assay: Herbicidal glasshouse test, pre-emergence, IPOHE). Conditions: applied at 1000 g/h, evaluated after 13 days.
Assay type: in vivo

Row | Structure (SMILES) | PRE Application IPOHE, percentage damage (five point scale)
41 | Cc1cccc(-n2c(=O)c(C(=O)Nc3nnnn3C)nn(C)c2=O)c1 [Compound 1.053] | 5 (5=80-100%)
42 | Cn1nnnc1NC(=O)c1nn(C)c(=O)n(Cc2cccc(C#N)c2)c1=O [Compound 1.054] | 5 (5=80-100%)
43 | Cn1nnnc1NC(=O)c1nn(C)c(=O)n(Cc2ccc(F)cc2F)c1=O [Compound 1.055] | 5 (5=80-100%)
44 | Cn1nnnc1NC(=O)c1nn(C)c(=O)n(Cc2c(F)cc(F)cc2F)c1=O [Compound 1.056] | 5 (5=80-100%)
45 | Cn1nnnc1NC(=O)c1nn(C)c(=O)n(Cc2ccc(C(F)(F)F)cc2)c1=O [Compound 1.057] | 4 (4=60-79%)

Each molecule was assayed on Amaranthus retoflexus (AMARE) (assay: Herbicidal glasshouse test, pre-emergence, AMARE). Conditions: applied at 1000 g/h, evaluated after 13 days.
Assay type: in vivo
Summary of the method: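 This pre-emergence glasshouse herbicide test used Amaranthus retoflexus sown in standard soil. After one day of cultivation, an aqueous spray made from the technical ingredient in 50:50 acetone/water with 0.5% Tween 20 was applied. Pots stayed at 24/16° C., 14 hours light, 65% humidity, with twice-daily watering. Damage was rated on a five point scale (1=0-19% up to 5=80-100%).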

Row | Structure (SMILES) | PRE Application AMARE, percentage damage (five point scale)
46 | Cc1cccc(-n2c(=O)c(C(=O)Nc3nnnn3C)nn(C)c2=O)c1 [Compound 1.053] | 5 (5=80-100%)
47 | Cn1nnnc1NC(=O)c1nn(C)c(=O)n(Cc2cccc(C#N)c2)c1=O [Compound 1.054] | 5 (5=80-100%)
48 | Cn1nnnc1NC(=O)c1nn(C)c(=O)n(Cc2ccc(F)cc2F)c1=O [Compound 1.055] | 5 (5=80-100%)
49 | Cn1nnnc1NC(=O)c1nn(C)c(=O)n(Cc2c(F)cc(F)cc2F)c1=O [Compound 1.056] | 5 (5=80-100%)
50 | Cn1nnnc1NC(=O)c1nn(C)c(=O)n(Cc2ccc(C(F)(F)F)cc2)c1=O [Compound 1.057] | 5 (5=80-100%)

The molecules below were run on Solanum nigrum (SOLNI) (assay: Herbicidal glasshouse test, post-emergence, SOLNI). Conditions: applied at 1000 g/h, evaluated after 13 days.
Assay type: in vivo

Row | Structure (SMILES) | POST Application SOLNI, percentage damage (five point scale)
51 | Cc1cccc(-n2c(=O)c(C(=O)Nc3nnnn3C)nn(C)c2=O)c1 [Compound 1.053] | 5 (5=80-100%)
52 | Cn1nnnc1NC(=O)c1nn(C)c(=O)n(Cc2cccc(C#N)c2)c1=O [Compound 1.054] | 5 (5=80-100%)
53 | Cn1nnnc1NC(=O)c1nn(C)c(=O)n(Cc2ccc(F)cc2F)c1=O [Compound 1.055] | 5 (5=80-100%)
54 | Cn1nnnc1NC(=O)c1nn(C)c(=O)n(Cc2c(F)cc(F)cc2F)c1=O [Compound 1.056] | 5 (5=80-100%)
55 | Cn1nnnc1NC(=O)c1nn(C)c(=O)n(Cc2ccc(C(F)(F)F)cc2)c1=O [Compound 1.057] | 5 (5=80-100%)

Each molecule was assayed on Setaria faberi (SETFA) (assay: Herbicidal glasshouse test, pre-emergence, SETFA). Conditions: applied at 1000 g/h, evaluated after 13 days.
Assay type: in vivo

Row | Structure (SMILES) | PRE Application SETFA, percentage damage (five point scale)
56 | Cc1cccc(-n2c(=O)c(C(=O)Nc3nnnn3C)nn(C)c2=O)c1 [Compound 1.053] | 3 (3=40-59%)
57 | Cn1nnnc1NC(=O)c1nn(C)c(=O)n(Cc2cccc(C#N)c2)c1=O [Compound 1.054] | 4 (4=60-79%)
58 | Cn1nnnc1NC(=O)c1nn(C)c(=O)n(Cc2ccc(F)cc2F)c1=O [Compound 1.055] | 1 (1=0-19%)
59 | Cn1nnnc1NC(=O)c1nn(C)c(=O)n(Cc2c(F)cc(F)cc2F)c1=O [Compound 1.056] | 1 (1=0-19%)
60 | Cn1nnnc1NC(=O)c1nn(C)c(=O)n(Cc2ccc(C(F)(F)F)cc2)c1=O [Compound 1.057] | 1 (1=0-19%)
